Results from ChEMBL document CHEMBL1127342, “Structure-based design of HIV protease inhibitors: 4-hydroxycoumarins and 4-hydroxy-2-pyrones as non-peptidic inhibitors” (J Med Chem, 1994).

Assays:
[1] = Tested for antiviral activity in HIV-1 infected PBMC; 100-300; assay type: functional; conditions: Human immunodeficiency virus 1; read-out: ED50 (the source's name)
[2] = target: T1, Human immunodeficiency virus type 1 protease (Human immunodeficiency virus 1, UniProt Q72874); experiment: (§1) Tested for the HIV Protease inhibitory activity of the compound
[3] = target: T1, Human immunodeficiency virus type 1 protease; experiment: as §1; assay type: functional
[4] = target: T2, Cathepsin E (Homo sapiens) (UniProt P14091); experiment: Tested for the inhibitory activity against human aspartyl protease, cathepsin E at 10 uM concentration
T2 sequence (whole entry): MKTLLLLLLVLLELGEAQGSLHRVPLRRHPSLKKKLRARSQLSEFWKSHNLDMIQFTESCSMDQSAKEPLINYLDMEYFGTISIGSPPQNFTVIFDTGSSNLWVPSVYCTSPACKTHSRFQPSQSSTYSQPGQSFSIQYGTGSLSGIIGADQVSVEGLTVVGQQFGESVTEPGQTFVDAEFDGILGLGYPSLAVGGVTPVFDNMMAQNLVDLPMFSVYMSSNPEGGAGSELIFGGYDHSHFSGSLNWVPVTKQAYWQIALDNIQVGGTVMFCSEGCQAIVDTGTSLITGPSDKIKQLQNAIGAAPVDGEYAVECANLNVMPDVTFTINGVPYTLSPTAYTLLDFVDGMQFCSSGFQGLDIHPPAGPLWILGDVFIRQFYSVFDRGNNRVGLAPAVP

H9 = experiment: Tested for the antiviral activity against HIV-1 IIIB-infected H9 cells; assay type: functional; conditions: Homo sapiens, read-out: ED50 (the source's name)
Pepsin A (Homo sapiens) = Pepsin A (Homo sapiens) (UniProt P0DJD9); experiment: Inhibitory activity against human aspartyl protease, pepsin at 10 uM
Chain of Pepsin A (Homo sapiens) (P0DJD9 63-388 limits assumed): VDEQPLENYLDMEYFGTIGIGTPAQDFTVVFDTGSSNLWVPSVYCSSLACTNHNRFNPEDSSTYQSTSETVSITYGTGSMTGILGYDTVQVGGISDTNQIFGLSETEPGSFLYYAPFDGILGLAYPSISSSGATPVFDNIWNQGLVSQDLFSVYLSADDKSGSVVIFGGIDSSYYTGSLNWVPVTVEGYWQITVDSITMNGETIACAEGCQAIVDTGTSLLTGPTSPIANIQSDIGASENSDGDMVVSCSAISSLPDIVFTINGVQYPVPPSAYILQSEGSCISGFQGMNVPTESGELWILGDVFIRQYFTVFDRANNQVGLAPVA

[5] = target: Cathepsin D (Homo sapiens) (UniProt P07339); experiment: Tested for the inhibitory activity against human aspartyl protease, cathepsin D at 10 uM concentration
Chain of Cathepsin D (Homo sapiens) (P07339 65-162 limits assumed): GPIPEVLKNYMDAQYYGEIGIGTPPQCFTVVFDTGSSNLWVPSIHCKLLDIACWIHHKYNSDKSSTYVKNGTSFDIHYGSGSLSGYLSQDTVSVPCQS
Chain of Cathepsin D (Homo sapiens) (P07339 169-412 limits assumed): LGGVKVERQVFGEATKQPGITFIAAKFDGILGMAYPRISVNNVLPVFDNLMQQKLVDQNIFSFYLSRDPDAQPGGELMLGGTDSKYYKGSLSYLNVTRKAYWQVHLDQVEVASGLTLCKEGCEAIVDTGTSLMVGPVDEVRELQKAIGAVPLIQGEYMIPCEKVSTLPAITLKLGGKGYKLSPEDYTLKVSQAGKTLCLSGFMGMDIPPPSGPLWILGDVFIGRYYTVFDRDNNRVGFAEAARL

Renin (Homo sapiens) = target: T3, Renin (Homo sapiens) (UniProt P00797); experiment: Tested for the inhibitory activity against human aspartyl protease, renin at 10 uM concentration
T3 sequence (whole entry): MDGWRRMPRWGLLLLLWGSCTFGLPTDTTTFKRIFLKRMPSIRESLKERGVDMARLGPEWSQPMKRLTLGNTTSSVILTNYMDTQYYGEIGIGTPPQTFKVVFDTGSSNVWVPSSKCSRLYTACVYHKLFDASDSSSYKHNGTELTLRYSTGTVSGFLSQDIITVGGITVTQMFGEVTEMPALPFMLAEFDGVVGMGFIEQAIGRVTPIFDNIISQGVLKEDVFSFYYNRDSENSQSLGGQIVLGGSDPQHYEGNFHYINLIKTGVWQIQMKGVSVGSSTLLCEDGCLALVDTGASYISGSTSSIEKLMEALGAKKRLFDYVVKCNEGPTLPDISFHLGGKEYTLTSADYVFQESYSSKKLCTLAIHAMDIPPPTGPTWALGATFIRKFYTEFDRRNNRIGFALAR

[6] = target: Human immunodeficiency virus type 1 protease (Human immunodeficiency virus 1) (UniProt Q72874); experiment: Tested for the activity against HIV protease
[7] = Oral bioavailability in rat; assay type: ADME, organism-based; conditions: in vivo
[8] = target: T1, Human immunodeficiency virus type 1 protease; experiment: Tested for the binding affinity against HIV-1 Protease
[9] = Oral bioavailability in dog; assay type: ADME, organism-based, Canis lupus familiaris; conditions: in vivo
MT4 = experiment: Tested for the antiviral activity against HIV-1 IIIB-infected MT-4; assay type: functional; conditions: Homo sapiens, read-out: ED50 (the source's name)
[10] = Tested for pharmacokinetic parameter to calculate the total body clearance at a dosage of 12 mg/kg in rat; assay type: ADME, organism-based; parameters: dose 12 mg/kg; conditions: in vivo, read-out: ClT
[11] = Tested for pharmacokinetic parameter to calculate the half life period at a dosage of 12 mg/kg in rat; assay type: ADME, organism-based; parameters: dose 12 mg/kg; conditions: in vivo
[12] = Tested for pharmacokinetic parameter to calculate the steady-state volume of distributio at a dosage of 12 mg/kg in rat; assay type: ADME, organism-based; parameters: dose 12 mg/kg; conditions: in vivo, read-out: Vss
[13] = Tested for pharmacokinetic parameter to calculate the total body clearance at a dosage of 2.5 mg/kg in dog; assay type: ADME, organism-based, Canis lupus familiaris; parameters: dose 2.5 mg/kg; conditions: in vivo, read-out: ClT
[14] = Tested for antiviral activity against clinical isolates such as AZT resistant strain; assay type: functional; conditions: read-out: ED50 (the source's name)
[15] = target: Gastricsin (Homo sapiens) (UniProt P20142); experiment: Tested for the inhibitory activity against human aspartyl protease gastricsin at 10 uM concentration
Chain of Gastricsin (Homo sapiens) (P20142 whole entry, looked up): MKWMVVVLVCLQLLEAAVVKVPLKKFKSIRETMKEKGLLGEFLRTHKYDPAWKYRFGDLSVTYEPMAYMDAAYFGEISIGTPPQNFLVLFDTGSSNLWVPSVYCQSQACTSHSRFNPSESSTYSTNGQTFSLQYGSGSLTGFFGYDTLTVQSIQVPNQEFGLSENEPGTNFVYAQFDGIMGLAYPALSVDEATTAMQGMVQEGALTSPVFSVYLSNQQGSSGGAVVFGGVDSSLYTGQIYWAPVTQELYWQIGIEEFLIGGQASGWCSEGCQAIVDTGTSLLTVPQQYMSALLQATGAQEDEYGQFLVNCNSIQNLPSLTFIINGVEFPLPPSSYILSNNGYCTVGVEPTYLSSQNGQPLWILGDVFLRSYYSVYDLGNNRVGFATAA

[16] = Tested for pharmacokinetic parameter to calculate the half life period at a dosage of 2.5 mg/kg in dog; assay type: ADME, organism-based, Canis lupus familiaris; parameters: dose 2.5 mg/kg; conditions: in vivo
[17] = Tested for pharmacokinetic parameter to calculate the steady-state volume of distributio at a dosage of 2.5 mg/kg in dog; assay type: ADME, organism-based, Canis lupus familiaris; parameters: dose 2.5 mg/kg; conditions: in vivo, read-out: Vss

In the case of `CCC(c1ccccc1)c1c(O)c2ccccc2oc1=O` (configuration not stated) [PHENPROCOUMON], the EC50 [1] is reported as 300 µM and the Ki [2] is reported as 1000 nM.

`CC(=O)CC(c1ccccc1)c1c(O)c2ccccc2oc1=O` (configuration not stated) [WARFARIN] showed an IC50 [3] of about 30 µM.

`CCC(c1ccccc1)c1c(O)cc(CCc2ccccc2)oc1=O` (configuration not stated) gave a Ki [2] of 500 nM.

For `CCC(Cc1ccccc1)c1cc(O)c(C(CC)c2ccccc2)c(=O)o1` (configuration not stated), the inhibition [4] was 72%, the EC50 (H9) was 3000 nM and the inhibition (Pepsin A (Homo sapiens)) was 53%. It also gave an inhibition [5] of 52%, an inhibition (Renin (Homo sapiens)) of 0% and a TCID50 [6] of 20 µM. For the same molecule, the bioavailability [7] was 76%, the Ki [8] was 38 nM and the bioavailability [9] was 45%. The EC50 (MT4) was 3000 nM, the clearance [10] was 0.8 mL/min/kg and the half-life [11] was 240 min. The Vd [12] was 0.1 L/kg, the clearance [13] was 0.7 mL/min/kg and the EC50 [14] was 4 µM. For the same molecule, the inhibition [15] was 0%, the half-life [16] was 360 min and the Vd [17] was 0.26 L/kg.
